# Experimental data reported in ChEMBL document CHEMBL3885881, “DrugMatrix”.
# Species on record: Rattus norvegicus
# Assay: DrugMatrix - Regimen: Daily Repeat
# Type: toxicity, organism-based, Sprague-Dawley
# Set-up: regimen Daily Repeat, gender Male, age 6-8 weeks
# Conditions: in vivo, po, route oral GAVAGE, vehicle .5 % CMC; for ABSOLUTE BASOPHIL / ABSOLUTE EOSINOPHIL / ABSOLUTE LYMPHOCYTE / ABSOLUTE MONOCYTE / ABSOLUTE SEGMENTED NEUTROPHIL / BASOPHIL / EOSINOPHIL / ERYTHROCYTE COUNT / HEMATOCRIT / HEMOGLOBIN / LEUKOCYTE COUNT / LYMPHOCYTE / MEAN CORPUSCULAR HEMOGLOBIN / MEAN CORPUSCULAR HEMOGLOBIN CONCENTRATION / MEAN CORPUSCULAR VOLUME / MONOCYTE / NEUTROPHIL / NUCLEATED RED BLOOD CELLS / PLATELET COUNT: tissue Blood; for ALANINE AMINOTRANSFERASE / ALBUMIN / ALKALINE PHOSPHATASE / ASPARTATE AMINOTRANSFERASE / BLOOD UREA NITROGEN / CARBON DIOXIDE / CHLORIDE / CHOLESTEROL / CREATINE PHOSPHOKINASE / CREATININE / GLUCOSE / LACTATE DEHYDROGENASE / LIPASE / PHOSPHORUS / POTASSIUM / SODIUM / TOTAL BILIRUBIN / TOTAL PROTEIN / URIC ACID: tissue Plasma
# [1] = 10 mg/kg, 72 h, dose level Low, time 3 day
# [2] = 10 mg/kg, 120 h, dose level Low, time 5 day
# [3] = 1200 mg/kg, 72 h, dose level High, time 3 day
# [4] = 1200 mg/kg, 120 h, dose level High, time 5 day
smiles,measurement,setting,value
CC(C)c1nc(CN(C)C(=O)N[C@H](C(=O)N[C@@H](Cc2ccccc2)C[C@H](O)[C@H](Cc2ccccc2)NC(=O)OCc2cncs2)C(C)C)cs1 [RITONAVIR],ABSOLUTE BASOPHIL,[1],0 CELLS/uL
same,ABSOLUTE EOSINOPHIL,[1],0 CELLS/uL
same,ABSOLUTE LYMPHOCYTE,[1],16363 CELLS/uL
same,ABSOLUTE MONOCYTE,[1],133.67 CELLS/uL
same,ABSOLUTE SEGMENTED NEUTROPHIL,[1],2103.33 CELLS/uL
same,BASOPHIL,[1],0%
same,EOSINOPHIL,[1],0%
same,ERYTHROCYTE COUNT,[1],5.55 x10E6/uL
same,HEMATOCRIT,[1],35.17%
same,HEMOGLOBIN,[1],13.33 G/DL
same,LEUKOCYTE COUNT,[1],18.6 x10E3/uL
same,LYMPHOCYTE,[1],88%
same,MEAN CORPUSCULAR HEMOGLOBIN,[1],24.03 pg
same,MEAN CORPUSCULAR HEMOGLOBIN CONCENTRATION,[1],37.93 G/DL
same,MEAN CORPUSCULAR VOLUME,[1],63.37 fL
same,MONOCYTE,[1],0.67%
same,NEUTROPHIL,[1],11.33%
same,NUCLEATED RED BLOOD CELLS,[1],0 /100WBC
same,PLATELET COUNT,[1],1318 x10E3/uL
same,ALANINE AMINOTRANSFERASE,[1],56.67 u/L
same,ALBUMIN,[1],4.1 G/DL
same,ALKALINE PHOSPHATASE,[1],325.33 u/L
same,ASPARTATE AMINOTRANSFERASE,[1],93.33 u/L
same,BLOOD UREA NITROGEN,[1],14 mg/dL
same,CARBON DIOXIDE,[1],29 mmol/L
same,CHLORIDE,[1],101 MEQ/L
same,CHOLESTEROL,[1],90.67 mg/dL
same,CREATINE PHOSPHOKINASE,[1],297.33 u/L
same,CREATININE,[1],0.23 mg/dL
same,GLUCOSE,[1],152 mg/dL
same,LACTATE DEHYDROGENASE,[1],319.33 u/L
same,LIPASE,[1],10.67 u/L
same,PHOSPHORUS,[1],12.83 mg/dL
same,POTASSIUM,[1],6.89 MEQ/L
same,SODIUM,[1],145.67 MEQ/L
same,TOTAL BILIRUBIN,[1],0.13 mg/dL
same,TOTAL PROTEIN,[1],5.77 G/DL
same,URIC ACID,[1],1.67 mg/dL
same,ABSOLUTE BASOPHIL,[2],0 CELLS/uL
same,ABSOLUTE EOSINOPHIL,[2],71.67 CELLS/uL
same,ABSOLUTE LYMPHOCYTE,[2],18278.33 CELLS/uL
same,ABSOLUTE MONOCYTE,[2],105.33 CELLS/uL
same,ABSOLUTE SEGMENTED NEUTROPHIL,[2],1678 CELLS/uL
same,BASOPHIL,[2],0%
same,EOSINOPHIL,[2],0.33%
same,ERYTHROCYTE COUNT,[2],6.19 x10E6/uL
same,HEMATOCRIT,[2],37%
same,HEMOGLOBIN,[2],13.97 G/DL
same,LEUKOCYTE COUNT,[2],20.13 x10E3/uL
same,LYMPHOCYTE,[2],90.33%
same,MEAN CORPUSCULAR HEMOGLOBIN,[2],22.63 pg
same,MEAN CORPUSCULAR HEMOGLOBIN CONCENTRATION,[2],37.73 G/DL
same,MEAN CORPUSCULAR VOLUME,[2],59.93 fL
same,MONOCYTE,[2],0.67%
same,NEUTROPHIL,[2],8.67%
same,NUCLEATED RED BLOOD CELLS,[2],0 /100WBC
same,PLATELET COUNT,[2],1433.33 x10E3/uL
same,ALANINE AMINOTRANSFERASE,[2],50.67 u/L
same,ALBUMIN,[2],4.4 G/DL
same,ALKALINE PHOSPHATASE,[2],359.67 u/L
same,ASPARTATE AMINOTRANSFERASE,[2],81.67 u/L
same,BLOOD UREA NITROGEN,[2],15.33 mg/dL
same,CARBON DIOXIDE,[2],27.67 mmol/L
same,CHLORIDE,[2],102 MEQ/L
same,CHOLESTEROL,[2],79.67 mg/dL
same,CREATINE PHOSPHOKINASE,[2],237 u/L
same,CREATININE,[2],0.21 mg/dL
same,GLUCOSE,[2],148.67 mg/dL
same,LACTATE DEHYDROGENASE,[2],188 u/L
same,LIPASE,[2],9.33 u/L
same,PHOSPHORUS,[2],13.17 mg/dL
same,POTASSIUM,[2],6.85 MEQ/L
same,SODIUM,[2],145.83 MEQ/L
same,TOTAL BILIRUBIN,[2],0.17 mg/dL
same,URIC ACID,[2],1.63 mg/dL
same,ABSOLUTE BASOPHIL,[3],0 CELLS/uL
same,ABSOLUTE EOSINOPHIL,[3],142.67 CELLS/uL
same,ABSOLUTE LYMPHOCYTE,[3],15572 CELLS/uL
same,ABSOLUTE MONOCYTE,[3],334 CELLS/uL
same,ABSOLUTE SEGMENTED NEUTROPHIL,[3],651.33 CELLS/uL
same,BASOPHIL,[3],0%
same,EOSINOPHIL,[3],0.67%
same,ERYTHROCYTE COUNT,[3],5.91 x10E6/uL
same,HEMATOCRIT,[3],36.97%
same,HEMOGLOBIN,[3],14.63 G/DL
same,LEUKOCYTE COUNT,[3],16.7 x10E3/uL
same,LYMPHOCYTE,[3],93.67%
same,MEAN CORPUSCULAR HEMOGLOBIN,[3],24.77 pg
same,MEAN CORPUSCULAR HEMOGLOBIN CONCENTRATION,[3],39.6 G/DL
same,MEAN CORPUSCULAR VOLUME,[3],62.53 fL
same,MONOCYTE,[3],2%
same,NEUTROPHIL,[3],3.67%
same,NUCLEATED RED BLOOD CELLS,[3],0 /100WBC
same,PLATELET COUNT,[3],1284 x10E3/uL
same,ALANINE AMINOTRANSFERASE,[3],50 u/L
same,ALBUMIN,[3],3.97 G/DL
same,ALKALINE PHOSPHATASE,[3],314 u/L
same,ASPARTATE AMINOTRANSFERASE,[3],75 u/L
same,BLOOD UREA NITROGEN,[3],13.67 mg/dL
same,CARBON DIOXIDE,[3],31.67 mmol/L
same,CHLORIDE,[3],100.33 MEQ/L
same,CHOLESTEROL,[3],86.67 mg/dL
same,CREATINE PHOSPHOKINASE,[3],162.33 u/L
same,CREATININE,[3],0.16 mg/dL
same,GLUCOSE,[3],153.67 mg/dL
same,LACTATE DEHYDROGENASE,[3],134.67 u/L
same,LIPASE,[3],10.33 u/L
same,PHOSPHORUS,[3],11.4 mg/dL
same,POTASSIUM,[3],5.99 MEQ/L
same,SODIUM,[3],144.87 MEQ/L
same,TOTAL BILIRUBIN,[3],0.2 mg/dL
same,TOTAL PROTEIN,[3],5.67 G/DL
same,URIC ACID,[3],1.33 mg/dL
same,ABSOLUTE BASOPHIL,[4],0 CELLS/uL
same,ABSOLUTE EOSINOPHIL,[4],0 CELLS/uL
same,ABSOLUTE LYMPHOCYTE,[4],16888.67 CELLS/uL
same,ABSOLUTE MONOCYTE,[4],206.67 CELLS/uL
same,ABSOLUTE SEGMENTED NEUTROPHIL,[4],871.33 CELLS/uL
same,BASOPHIL,[4],0%
same,EOSINOPHIL,[4],0%
same,ERYTHROCYTE COUNT,[4],6.28 x10E6/uL
same,HEMATOCRIT,[4],37.7%
same,HEMOGLOBIN,[4],14.77 G/DL
same,LEUKOCYTE COUNT,[4],17.97 x10E3/uL
same,LYMPHOCYTE,[4],94%
same,MEAN CORPUSCULAR HEMOGLOBIN,[4],23.53 pg
same,MEAN CORPUSCULAR HEMOGLOBIN CONCENTRATION,[4],39.17 G/DL
same,MEAN CORPUSCULAR VOLUME,[4],60.2 fL
same,MONOCYTE,[4],1%
same,NEUTROPHIL,[4],5%
same,NUCLEATED RED BLOOD CELLS,[4],0 /100WBC
same,PLATELET COUNT,[4],1230 x10E3/uL
same,ALANINE AMINOTRANSFERASE,[4],59.67 u/L
same,ALBUMIN,[4],4 G/DL
same,ALKALINE PHOSPHATASE,[4],219 u/L
same,ASPARTATE AMINOTRANSFERASE,[4],104.67 u/L
same,BLOOD UREA NITROGEN,[4],16 mg/dL
same,CARBON DIOXIDE,[4],22.33 mmol/L
same,CHLORIDE,[4],106 MEQ/L
same,CHOLESTEROL,[4],79 mg/dL
same,CREATINE PHOSPHOKINASE,[4],482 u/L
same,CREATININE,[4],0.24 mg/dL
same,GLUCOSE,[4],155.33 mg/dL
same,LACTATE DEHYDROGENASE,[4],180.33 u/L
same,LIPASE,[4],10.67 u/L
same,PHOSPHORUS,[4],10.5 mg/dL
same,POTASSIUM,[4],7.89 MEQ/L
same,SODIUM,[4],148.6 MEQ/L
same,TOTAL BILIRUBIN,[4],0.17 mg/dL
same,TOTAL PROTEIN,[4],6.03 G/DL
same,URIC ACID,[4],1.8 mg/dL
